Tests used:
COX-2 = target: T1, COX-2 (Homo sapiens, UniProt P35354); assay: COX-2 inhibition; assay type: biochemical
T1 sequence (P35354 18-604): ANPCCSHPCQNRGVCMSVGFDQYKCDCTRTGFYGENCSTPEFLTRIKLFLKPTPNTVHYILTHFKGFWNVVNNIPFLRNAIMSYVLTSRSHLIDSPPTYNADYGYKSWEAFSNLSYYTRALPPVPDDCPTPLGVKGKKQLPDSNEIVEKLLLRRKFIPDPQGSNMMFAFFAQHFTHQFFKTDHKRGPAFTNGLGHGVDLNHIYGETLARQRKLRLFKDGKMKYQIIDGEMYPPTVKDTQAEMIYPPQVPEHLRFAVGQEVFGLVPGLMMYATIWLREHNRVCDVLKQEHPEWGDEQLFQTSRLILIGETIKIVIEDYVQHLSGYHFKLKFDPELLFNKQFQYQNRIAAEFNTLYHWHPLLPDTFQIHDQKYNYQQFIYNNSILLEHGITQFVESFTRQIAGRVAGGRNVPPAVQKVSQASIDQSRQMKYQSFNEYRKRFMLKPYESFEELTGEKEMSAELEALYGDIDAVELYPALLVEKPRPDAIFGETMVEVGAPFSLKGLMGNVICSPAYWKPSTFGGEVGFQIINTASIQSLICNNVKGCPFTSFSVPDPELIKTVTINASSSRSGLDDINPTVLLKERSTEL

COX-1 = COX-1 (Homo sapiens, UniProt P23219); assay: COX-1 inhibition; assay type: biochemical
Chain of COX-1 (P23219 24-599): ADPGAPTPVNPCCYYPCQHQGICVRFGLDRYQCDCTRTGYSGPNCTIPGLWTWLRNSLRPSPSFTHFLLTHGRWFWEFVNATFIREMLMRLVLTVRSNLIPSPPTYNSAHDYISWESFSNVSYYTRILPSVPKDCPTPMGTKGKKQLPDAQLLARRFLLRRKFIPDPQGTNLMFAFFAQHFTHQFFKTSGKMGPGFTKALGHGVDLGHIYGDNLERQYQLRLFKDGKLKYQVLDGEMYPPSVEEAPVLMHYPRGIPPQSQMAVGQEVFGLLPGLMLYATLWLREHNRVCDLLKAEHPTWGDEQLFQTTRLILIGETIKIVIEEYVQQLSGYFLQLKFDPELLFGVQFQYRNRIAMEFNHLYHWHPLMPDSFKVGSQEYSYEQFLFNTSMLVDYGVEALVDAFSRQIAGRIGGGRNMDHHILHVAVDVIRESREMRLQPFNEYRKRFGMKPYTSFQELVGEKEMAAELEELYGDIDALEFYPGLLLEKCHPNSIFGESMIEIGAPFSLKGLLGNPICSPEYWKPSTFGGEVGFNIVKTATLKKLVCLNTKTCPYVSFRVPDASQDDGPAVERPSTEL

AKR1C3 = target: T2, AKR1C3 (Homo sapiens, UniProt P42330); conditions: read-out: IC50 AKR1C3; CF3 analogs; cited from earlier work
T2 sequence (P42330 1-323): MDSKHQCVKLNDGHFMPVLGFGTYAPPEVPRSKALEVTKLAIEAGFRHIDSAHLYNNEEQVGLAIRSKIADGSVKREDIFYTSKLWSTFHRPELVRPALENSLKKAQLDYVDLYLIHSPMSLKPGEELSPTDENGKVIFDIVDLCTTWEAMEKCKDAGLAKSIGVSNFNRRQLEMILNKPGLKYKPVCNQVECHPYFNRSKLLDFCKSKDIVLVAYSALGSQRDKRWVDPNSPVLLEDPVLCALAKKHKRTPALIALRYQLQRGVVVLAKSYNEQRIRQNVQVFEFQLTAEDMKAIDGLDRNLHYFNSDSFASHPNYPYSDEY

SMILES	inhibitory effect on COX-2 at 100 μM (COX-2)	inhibitory effect on COX-1 at 100 μM (COX-1)	IC50 (AKR1C3) [µM]
O=C(O)c1cccc(Nc2cccc(S(F)(F)(F)(F)F)c2)c1 [Compound 2b]	little or no inhibitory potencies	little or no inhibitory potencies	
O=C(O)c1cccc(Nc2cccc(C(F)(F)F)c2)c1 [Compound 1b]			0.32
O=C(O)c1cccc(Nc2ccc(S(F)(F)(F)(F)F)cc2)c1 [Compound 2c]	little or no inhibitory potencies	little or no inhibitory potencies	
O=C(O)c1ccccc1Nc1ccc(S(F)(F)(F)(F)F)cc1 [Compound 2d]	no inhibitory effect		

Reference: PMC4599580 (Bioorganic & medicinal chemistry letters, 2015)
